Experimental data reported in patent US8053573B2, “Monomer 5, 6-diphenyl-1.2.4-traizinic derivatives and the use thereof” (Pierre Fabre Dermo-Cosmetique, priority 2004, dated 2011).
Values joined by “and” are separate entries in the source; they are usually repeats but may differ in a detail not shown here. Equal values may be shown once.

Key:
Assay type in all cases: physicochemical
[1] = Spectral distribution in UVA and UVB (290-400 nm); settings: range from 290 nm to 400 nm
Excerpt: The products tested are classified according to spectral distribution in UVA and UVB in a range from 290 nm to 400 nm.
It is possible to differentiate them according to their spectral distribution:
Products with a narrow spectrum: • Products absorbing in the range between 280 nm and 320 nm (UVB) • Products absorbing in the range between 320 nm and 400 nm (UVA) Products with a broad spectrum: • Products absorbing in UVB (280-320 nm) and UVA-II […] • Products covering UVB and UVA (280-400 nm).

[2] = Spectral characteristics: molar extinction coefficient and specific absorbance; settings: ethyl acetate, 10 μg/ml; for Maximum specific absorbance UVB / Maximum specific absorbance UVA: A1cm^1%
Excerpt: The calculation of the molar extinction coefficient (ε) is made from the Beer-Lambert law:
[formula] Wherein: A=absorbance I0=intensity of the incident light I=intensity of the transmitted light ε=molar extinction (or molar absorbance) coefficient in M^−1 cm^−1 l=path length in cm c=concentration in mol/l
The molar extinction coefficient can be expressed with respect to a given mass of the product. It thus makes it possible to be able to compare the coefficients of extinction between products for the same given quantity. This quantity is 1% by weight. The molar extinction coefficient thus becomes the specific absorbance (A1cm^1%).
[formula] Wherein: A1cm^1%=specific absorbance ε=molar extinction coefficient M=molar mass
The spectral characteristics of the compounds in comparison with commercial filters at a concentration of 10 μg/ml are summarized in tables 2-1 and 2-2.
Procedure: The products are dissolved in ethyl acetate to a concentration of 10 μg/ml. The spectra are measured using a dual-beam spectrophotometer (Varian CARY 50 Scan) between 290 nm and 400 nm.

[3] = In vitro SPF in a chemical solvent (Diffey and Robson); settings: ethyl acetate solution, 10 μg/ml, transmittance 290-400 nm
Protocol: The in vitro methods of determining the protective effectiveness of sun products consist of measuring by transmission spectrophotometry the absorption spectrum of the filter in solution or of the product applied on a substrate with the aim of simulating the surface of the skin. The effectiveness against UVB and/or UVA rays, or the effect on the cutaneous response, are then determined by calculation, taking into account or not the UV radiation action spectrum for the damage considered.
The Sayre/Agin and Diffey/Robson method, used since the 1990s, involves a comparative measurement, with the aid of an integrating-sphere spectroradiometer, of the transition from 290 nm to 400 nm in 5 nm steps, the sample being subjected to UV radiation from a stable known source covering the whole of the UV spectrum (unfiltered xenon).
Diffey and Robson evaluate the erythemal response by the following calculation:
[formula] E(λ)=spectral irradiation in W(m^−2) (nm^−1) at 40° N sun at 20° zenith angle ε=erythematous capacity
The Diffey and Robson formula makes it possible to determine SPF from the measurement of transmittance between 290 nm and 400 nm. Transmittance is measured in solution in ethyl acetate at a concentration of 10 μg/ml using a UV-visible spectrophotometer (Varian CARY 50 Scan).

[4] = Solubility study in solvents or excipients used in cosmetics
[5] = Photostability in solution in a chemical solvent (Suntest CPS+); settings: 25 μg deposited from methanol, absorbance vs non-irradiated control, in % (unit assumed); for Photostability at 10 MED mean: Suntest irradiation 10 MED; for Photostability at 20 MED mean: Suntest irradiation 20 MED
Excerpt: A Suntest CPS+ (Atlas, Linsengenicht/Altenhasslan, Germany) was used. The Suntest makes it possible to reproduce the solar spectrum and thus to carry out exposures inside at any time without weather constraints.
The radiance of the solar simulator was carefully measured with a spectroradiometer (MSS 2044, Bielefeld, Germany). UVB and UVA intensities were 0.49 mW/cm^2 and 6.32 mW/cm^2, respectively. The MED value defined by COLIPA is 5.6 J/cm^2 in total UV (22). The UV total (UVA+UVB) accounts for 14.8% of the energy delivered by the lamp (power 460 W/m^2). An irradiation dose equivalent to 1 MED corresponds to 37.83 J/cm^2 (in total spectrum) delivered by the lamp.
The Suntest test duration is calculated using the following formula: t=H/E with: […]
The solutions of the compounds are prepared at a concentration of 500 μg/ml in methanol. 50 μl (25 μg) of each solution are deposited in a crystallizer, then irradiated in the Suntest at 5, 10 and/or 20 MED. A non-irradiated control is prepared (deposit of 50 μl of solution and addition of 2.450 ml of methanol). The solvent evaporates during irradiation and the products are taken up in 2.5 ml of methanol. After irradiation, the absorbance of each solution is measured with the UV-visible spectrophotometer (Varian CARY 50 Scan).

[6] = In vitro SPF in a primary formula (gel on PMMA plates); settings: PMMA plate, 1.2 mg/cm^2
Protocol: PMMA (polymethyl methacrylate) plates (50×50 mm, supplied by Europlast) were used.
The dose applied in the in vivo solar product evaluation protocols (2 mg/cm^2) is too high for the type of substrate employed here.
Gels were formulated from the triazines that are objects of this invention and certain reference filters. The molecules are solubilized in Transcutol® CG in a water bath. The solution is then placed under magnetic stirring and a gelling agent, Klucel HF (hydroxypropyl cellulose), is added at a concentration of 2%. Stirring is maintained for 30 minutes. SPF is measured using a Labsphere UV-1000 S Transmittance Analyzer spectrophotometer (Labsphere, North Sutton, N.H., USA).

[7] = Spectral characteristics: molar extinction coefficient and specific absorbance; settings: ethyl acetate, 10 μg/ml; for Maximum specific absorbance UVC: A1cm^1%
[8] = Finsol V NT ® (C12-C15 alkyl benzoate)
[9] = single filter 3% in Transcutol CG / Klucel HF gel

Structure (SMILES) | Spectral distribution [1] | Maximum specific absorbance UVB [2] | Maximum molar extinction coefficient UVB [2] [M⁻¹ cm⁻¹] | Wavelength of maximum molar extinction coefficient UVB [2] | Wavelength of maximum specific absorbance UVB [2] | SPF [3] | Solubility (%) [4, 8] [%] | Solubility (%) ([4]; PEG400 ® (polyethylene glycol)) | Photostability at 10 MED mean [5] | Photostability at 20 MED mean [5] | SPF [6, 9] | Maximum specific absorbance UVA [2] | Maximum molar extinction coefficient UVA [2] [M⁻¹ cm⁻¹] | Wavelength of maximum molar extinction coefficient UVA [2] | Wavelength of maximum specific absorbance UVA [2] | Maximum specific absorbance UVC [7] | Maximum molar extinction coefficient UVC [7] | Wavelength of maximum molar extinction coefficient UVC [7] | Wavelength of maximum specific absorbance UVC [7] | further results
COc1ccc(-c2nnc(-c3ccc(O)cc3)nc2-c2ccc(OC)cc2)cc1 [JR65, 3-(4-hydroxyphenyl)-5,6-bis(4-methoxyphenyl)-1,2,4-triazine] | absorb in UVB | 809 | 31100 | at 315 | at 315 | 68.21 | 1 | 5 | 96.91 | 85.5 | 9.8 and 10.9 |  |  |  |  |  |  |  |  | Solubility (%) ([4]; Arlasolve DMI ® (dimethyl isosorbide)): 8%; Solubility (%) ([4]; Butylene glycol): 5%; Solubility (%) ([4]; Cetiol SN ® (decyl oleate)): 1%; Solubility (%) ([4]; Cetiol V ® (cetearyl isononanoate)): 2%; Solubility (%) ([4]; Hexylene glycol): 5%; Solubility (%) ([4]; Isopropyl adipate): 2%; Solubility (%) ([4]; Isopropyl myristate): 5%; Solubility (%) ([4]; Myritol 318 ® (caprylic/capric triglycerides)): 0.5%
COc1ccc(-c2nnc(N)nc2-c2ccc(OC)cc2)cc1 [JR77, 3-amino-5,6-bis(4-methoxyphenyl)-1,2,4-triazine] | absorb in UVB (280-320 nm) and UVA-II (280-340 nm) |  |  |  |  | 47.16 |  |  | 73.03 | 61.14 |  | 249 | 7600 | at 360 | at 360 | 631 | 19300 M⁻¹ cm⁻¹ | at 280 | at 280 | 
CCCCCCCCCCCCOc1ccc(-c2nnc(-c3ccc(OC)cc3)c(-c3ccc(OC)cc3)n2)cc1 [JR173, 3-(4-dodecyloxyphenyl)-5,6-bis(4-methoxyphenyl)-1,2,4-triazine] | absorb in UVB | 878 at | 48600 | at 305 | 305 | 69.02 | 7 | 2 |  |  |  |  |  |  |  |  |  |  |  | 
COc1ccc(C(=O)CC(=O)c2ccc(C(C)(C)C)cc2)cc1 [Parsol 1789 ®, reference compound] | only absorbs in UVA |  |  |  |  | 51.1 |  |  | 57.04 | 6.26 |  | 1100 | 34100 | at 360 | at 360 | 278 at | 8633 at M^−1 cm^−1 | 275 | 275 | 
CCCCC(CC)COC(=O)C=Cc1ccc(OC)cc1 (stereo not shown) [Parsol MCX ®, reference compound] |  | 848 | 24600 | at 310 | at 310 | 20.78 |  |  | 33.38 | 11.63 |  |  |  |  |  |  |  |  |  | SPF ([6]; single filter 5% in Transcutol CG / Klucel HF gel): 17.2
CCCCC(CC)COc1ccc(-c2nc(-c3ccc(OC)cc3)nc(-c3ccc(OCC(CC)CCCC)cc3O)n2)c(O)c1 (stereo not shown) [Tinosorb S ®, reference compound] | absorb in UVB and UVA | 751 | 47150 | at 310 | at 310 | 76.19 |  |  |  |  | 9.8 | 789 | 49580 | at 345 | at 345 |  |  |  |  | 
